US11292801B2, “Calpain modulators and therapeutic uses thereof” (Blade Therapeutics, Inc., priority 2016, dated 2022)

How the values were obtained:
Human Calpain 2/NS1 = biological target: T1, Human Calpain 2/NS1 (Homo sapiens, UniProt P17655); assay: Biochemical inhibition of calpain 2, continuous fluorescence (FRET substrate) assay; conditions: mean, read-out: Human Calpain 2/NS1 IC50 (nM)_MEAN
T1 sequence (P17655 1-700): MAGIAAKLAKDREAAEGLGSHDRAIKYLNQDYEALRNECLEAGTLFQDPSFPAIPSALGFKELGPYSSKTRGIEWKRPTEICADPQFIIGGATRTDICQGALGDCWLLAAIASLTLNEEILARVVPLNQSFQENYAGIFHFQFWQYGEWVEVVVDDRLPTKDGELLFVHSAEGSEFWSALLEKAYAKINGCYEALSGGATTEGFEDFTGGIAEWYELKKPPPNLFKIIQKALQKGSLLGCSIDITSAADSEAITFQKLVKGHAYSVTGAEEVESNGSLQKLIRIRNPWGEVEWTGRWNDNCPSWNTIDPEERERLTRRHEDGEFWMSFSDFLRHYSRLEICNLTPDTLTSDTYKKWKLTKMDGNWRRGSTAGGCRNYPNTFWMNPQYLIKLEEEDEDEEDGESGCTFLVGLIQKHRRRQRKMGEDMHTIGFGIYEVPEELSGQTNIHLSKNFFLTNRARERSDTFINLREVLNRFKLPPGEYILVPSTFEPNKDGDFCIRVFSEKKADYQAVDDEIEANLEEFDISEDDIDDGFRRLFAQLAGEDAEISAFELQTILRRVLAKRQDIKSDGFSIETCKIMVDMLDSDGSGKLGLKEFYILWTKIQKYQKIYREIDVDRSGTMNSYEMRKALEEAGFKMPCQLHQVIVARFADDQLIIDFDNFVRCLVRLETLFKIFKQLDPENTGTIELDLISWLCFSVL
T1 sequence (P04632 1-268 partner): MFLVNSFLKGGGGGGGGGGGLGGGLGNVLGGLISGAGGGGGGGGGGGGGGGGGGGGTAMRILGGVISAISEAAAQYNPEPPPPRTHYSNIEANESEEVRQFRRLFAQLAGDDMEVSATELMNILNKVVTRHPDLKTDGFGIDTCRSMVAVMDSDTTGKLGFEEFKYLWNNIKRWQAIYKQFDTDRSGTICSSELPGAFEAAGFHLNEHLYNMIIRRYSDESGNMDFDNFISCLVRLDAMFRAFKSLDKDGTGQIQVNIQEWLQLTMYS
Method: (§1) Calpain 1, 2, and 9 activity and inhibition thereof are assessed by means of a continuous fluorescence assay. The SensoLyte 520 Calpain substrate (Anaspec Inc) is optimized for detecting calpain activity. This substrate contains a novel internally quenched 5-FAM/QXL™ 520 FRET pair. Calpains 1, 2, and 9 cleave the FRET substrate into two separate fragments resulting in an increase of 5-FAM fluorescence that is proportional to calpain activity.
(§2) Assays are typically setup in black 384-well plates using automated liquid handling as follows. Calpain assay base buffer typically contains 50 mM Tris, pH˜7.5, 100 mM NaCl and 1 mM DTT. Inhibitors are serially diluted in DMSO and used to setup 2× mixtures with calpains in the aforementioned buffer. After incubation at ambient temperature (25C), the reaction is initiated by adding a 2× mix of the fluorescent peptide substrate and CaCl2) (required for in-situ calpain activation) in the same buffer. Reaction progress curve data are typically collected for 10 min using excitation/emission wavelengths of 490 nm/520 nm on SpectraMax i3× or the FLIPR-Tetra plate readers (Molecular Devices Inc). Reaction rates were calculated from progress curve slopes typically over 1-5 min. Dose response curves (rate vs. log inhibitor concentration) were typically fit to a 4-parameter logistic function to extract IC50 values.

Human Calpain 1/NS1 = biological target: T2, Human Calpain 1/NS1 (Homo sapiens, UniProt P07384); assay: Biochemical inhibition of calpain 1, continuous fluorescence (FRET substrate) assay; conditions: mean, read-out: Human Calpain 1/NS1 IC50 (nM)_MEAN
T2 sequence (P07384 1-714): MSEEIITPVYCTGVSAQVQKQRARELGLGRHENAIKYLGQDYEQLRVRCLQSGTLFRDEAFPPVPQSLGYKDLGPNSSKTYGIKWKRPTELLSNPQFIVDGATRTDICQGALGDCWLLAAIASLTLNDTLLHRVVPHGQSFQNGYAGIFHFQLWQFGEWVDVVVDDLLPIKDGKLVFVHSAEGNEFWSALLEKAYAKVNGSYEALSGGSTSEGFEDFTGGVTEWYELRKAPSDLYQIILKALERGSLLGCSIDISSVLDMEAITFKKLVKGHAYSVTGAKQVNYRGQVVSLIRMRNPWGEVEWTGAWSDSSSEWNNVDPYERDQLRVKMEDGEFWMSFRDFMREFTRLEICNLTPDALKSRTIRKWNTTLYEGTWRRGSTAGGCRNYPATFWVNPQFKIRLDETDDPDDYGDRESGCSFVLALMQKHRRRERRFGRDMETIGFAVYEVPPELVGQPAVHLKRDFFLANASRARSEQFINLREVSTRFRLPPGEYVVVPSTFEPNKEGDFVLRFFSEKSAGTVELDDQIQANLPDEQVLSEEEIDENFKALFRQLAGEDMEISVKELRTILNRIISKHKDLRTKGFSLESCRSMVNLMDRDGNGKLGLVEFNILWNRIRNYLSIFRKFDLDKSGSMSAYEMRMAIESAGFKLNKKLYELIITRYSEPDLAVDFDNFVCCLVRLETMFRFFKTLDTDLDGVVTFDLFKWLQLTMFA
T2 sequence (P04632 1-268 partner): T1 sequence (P04632 1-268 partner)
Method: as §1, §2

Human Calpain 9/NS1 = biological target: T3, Human Calpain 9/NS1 (Homo sapiens, UniProt O14815); assay: Biochemical inhibition of calpain 9, continuous fluorescence (FRET substrate) assay; conditions: mean, read-out: Human Calpain 9/NS1 IC50 (nM)_MEAN
T3 sequence (O14815 1-690): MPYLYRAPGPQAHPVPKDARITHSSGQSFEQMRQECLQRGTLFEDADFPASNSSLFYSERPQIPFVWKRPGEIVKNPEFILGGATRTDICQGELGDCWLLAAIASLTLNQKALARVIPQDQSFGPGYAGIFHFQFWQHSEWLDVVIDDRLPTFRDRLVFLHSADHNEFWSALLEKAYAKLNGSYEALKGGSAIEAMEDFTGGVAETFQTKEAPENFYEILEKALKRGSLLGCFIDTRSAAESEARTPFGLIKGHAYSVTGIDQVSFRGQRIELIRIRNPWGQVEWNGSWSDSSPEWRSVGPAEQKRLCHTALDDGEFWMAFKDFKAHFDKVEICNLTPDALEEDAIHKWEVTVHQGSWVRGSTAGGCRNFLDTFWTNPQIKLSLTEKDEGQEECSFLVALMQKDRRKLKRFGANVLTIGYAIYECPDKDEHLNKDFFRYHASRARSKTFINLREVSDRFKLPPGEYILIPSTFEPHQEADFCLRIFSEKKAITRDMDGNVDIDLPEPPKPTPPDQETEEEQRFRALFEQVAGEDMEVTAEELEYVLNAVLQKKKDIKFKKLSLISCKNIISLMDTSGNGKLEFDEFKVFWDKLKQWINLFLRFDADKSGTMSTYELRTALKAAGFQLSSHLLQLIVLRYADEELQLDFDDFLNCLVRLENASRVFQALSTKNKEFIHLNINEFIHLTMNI
T3 sequence (P04632 1-268 partner): T1 sequence (P04632 1-268 partner)
Method: as §1, §2

| Compound | IC50 (Human Calpain 2/NS1) [nM] | IC50 (Human Calpain 1/NS1) [nM] | IC50 (Human Calpain 9/NS1) [nM] |
| --- | --- | --- | --- |
| CCOC(=O)CCNC(=O)C(=O)[C@@H]1CCCCOCCOCc2ccccc2C(=O)N1 [Compound 55, Ethyl (S)-3-(2-oxo-2-(12-oxo-1,3,4,6,7,8,9,10,11,12-decahydrobenzo[f][1,4]dioxa[9]azacyclotetradecin-10-yl)acetamido)propanoate] | 3000 to 10000 | > 10000 | 3000 to 10000 |
| O=C[C@@H]1CC=CCCOc2cccc(c2)-c2ccccc2C(=O)N1 [Compound 29, (S)-11-Oxo-3-oxa-10-aza-1(1,2),2(1,3)-dibenzenacycloundecaphan-6-ene-9-carbaldehyde] | < 3000 | < 3000 | < 3000 |
| CC(C)NC(=O)C(=O)[C@@H]1C/C=C\COCCOCc2ccccc2C(=O)N1 [Compound 58, (S,Z)—N-isopropyl-2-oxo-2-(12-oxo-1,3,4,6,9,10,11,12-octahydrobenzo[f][1,4]dioxa[9]azacyclotetradecin-10-yl)acetamide] | > 10000 | > 10000 | > 10000 |
| O=C[C@@H]1Cc2ccc(cc2)CCCCc2ccc3nn(cc3c2)-c2ncccc2C(=O)N1 [Compound 76, (1^3Z,1^4Z,5S)-3-oxo-1^2H-4-aza-1(2,5)-indazola-2(2,3)-pyridina-7(1,4)-benzenacycloundecaphane-5-carbaldehyde] | < 3000 | < 3000 | < 3000 |
| O=C[C@@H]1Cc2ccccc2CCCOCCCn2cncc2C(=O)N1 [Compound 22] | 3000 to 10000 | 3000 to 10000 | > 10000 |
| COc1cc(CNC(=O)C(=O)C2CCCCOCCOCc3ccccc3C(=O)N2)cc(OC)c1 (centres unmarked) [Compound 119, N-(3,5-dimethoxybenzyl)-2-oxo-2-(12-oxo-1,3,4,6,7,8,9,10,11,12-decahydrobenzo[f][1,4]dioxa[9]azacyclotetradecin-10-yl)acetamide] | 3000 to 10000 | > 10000 | < 3000 |
| O=C[C@@H]1Cc2ccccc2CCCCCCOc2ccccc2C(=O)N1 [Compound 20, (S)-19-Oxo-6,7,8,9,10,11,16,17,18,19-decahydrodibenzo[b,h][1]oxa[5]aza-cyclopentadecine-17-carbaldehyde] | < 3000 | 3000 to 10000 | < 3000 |
| O=C1NC(C(=O)C(=O)N2CCOCC2)CCCCOCCOCc2ccccc21 (centres unmarked) [Compound 115, 1-Morpholino-2-(12-oxo-1,3,4,6,7,8,9,10,11,12-decahydrobenzo[f][1,4]dioxa[9]azacyclotetradecin-10-yl)ethane-1,2-dione] | > 10000 | > 10000 | > 10000 |
| O=C[C@@H]1CC=CCCOc2ccnc(n2)-c2ccccc2C(=O)N1 [Compound 39, (S)-3-Oxo-11-oxa-4-aza-1(2,4)-pyrimidina-2(1,2)-benzenacyclo undecaphan-7-ene-5-carbaldehyde] | < 3000 | 3000 to 10000 | < 3000 |
| Cc1ccc(Cl)cc1CNC(=O)C(=O)C1CCCCOCCOCc2ccccc2C(=O)N1 (centres unmarked) [Compound 108, N-(5-chloro-2-methylbenzyl)-2-oxo-2-(12-oxo-1,3,4,6,7,8,9,10,11,12-decahydrobenzo[f][1,4]dioxa[9]azacyclotetradecin-10-yl)acetamide] | 3000 to 10000 | > 10000 | < 3000 |
| Cc1cccc(C)c1NC(=O)C(=O)[C@@H]1C/C=C\COCCOCc2ccccc2C(=O)N1 [Compound 61, (S,Z)—N-(2,6-dimethylphenyl)-2-oxo-2-(12-oxo-1,3,4,6,9,10,11,12-octahydrobenzo[f][1,4]dioxa[9]azacyclotetradecin-10-yl)acetamide] | > 10000 | > 10000 | > 10000 |
| O=C[C@@H]1CCCCCCCCc2ccccc2C(=O)N1 [Compound 15, (S)-1-Oxo-2,3,4,5,6,7,8,9,10,11-decahydro-1h-benzo[c][1]aza-cyclotridecine-3-carbaldehyde] | < 3000 | 3000 to 10000 | < 3000 |
| O=C[C@@H]1Cc2cccc(c2)C=CCCOc2cccc(c2)-c2ncccc2C(=O)N1 [Compound 36, (S)-3-Oxo-12-oxa-4-aza-2(2,3)-pyridina-1,7(1,3)-dibenzenacyclododecaphan-8-ene-5-carbaldehyde] | < 3000 | < 3000 | < 3000 |
| O=C[C@@H]1CCCCOCCn2ccc3cccc(c32)C(=O)N1 [Compound 8, (S)-11-Oxo-2,3,4,5,8,9,10,11-octahydrobenzo[b][1]oxa[5]azacyclotridecine-9-carbaldehyde] | < 3000 | 3000 to 10000 | < 3000 |
| O=C[C@@H]1CC=CCOCCCCOCc2ccccc2C(=O)N1 [Compound 12, (S)-14-Oxo-1,3,4,5,6,8,11,12,13,14-decahydrobenzo[h][1,6]dioxa[11]aza-cyclohexadecine-12-carbaldehyde] | < 3000 | < 3000 | 3000 to 10000 |
| O=C(NCc1ccc2c(c1)OCO2)C(=O)C1CCCCOCCOCc2ccccc2C(=O)N1 (centres unmarked) [Compound 81, N-(benzo[d][1,3]dioxol-5-ylmethyl)-2-oxo-2-(12-oxo-1,3,4,6,7,8,9,10,11,12-decahydrobenzo[f][1,4]dioxa[9]azacyclotetradecin-10-yl)acetamide] | 3000 to 10000 | > 10000 | < 3000 |
| O=C(NC1CCCC1)C(=O)C1CCCCOCCOCc2ccccc2C(=O)N1 (centres unmarked) [Compound 109, N-cyclopentyl-2-oxo-2-(12-oxo-1,3,4,6,7,8,9,10,11,12-decahydrobenzo[f][1,4]dioxa[9]azacyclotetradecin-10-yl)acetamide] | > 10000 | > 10000 |  |
